The values below come from patent US20060004088A1, “Furan derivatives for preventing and curing osteoporosis and pharmaceutical compositions containing the same” (OCT INC., priority 2002, published 2006).

One assay concerns MG-63 osteoblasts. The assay is described as follows: Proliferation of MG-63 osteoblasts (3H-thymidine incorporation). In kind it is cell-based, human. Particulars: for Proliferation rate of MG-63 cells, %: 1% FBS, untreated control = 100; for proliferation rate of osteoblasts compared to a control not treated: text summary, concentration not stated. From the text: In the following tests, three kinds of cell lines were used. The human osteosarcoma cell lines, MG-63 (ATCC No. CRL-1427) and HOS (ATCC No. CRL-1543), and mouse muscle C2C12 muscle cells (ATCC No. CRL-1772) were purchased from ATCC (American Type Culture Collection, Rockville, USA), and cultured in Dulbecco's modified Eagle's medium (DMEM) supplemented with 10% fetal bovine serum (FBS).
In order to indirectly evaluate cytotoxicity of the Compound 1 and investigate effect of the Compound 1 naturally extracted on obsteoblast proliferation, proliferation of MG-63 osteoblasts was investigated by measuring the amount of ^3H-thymidine incorporated into cellular DNA upon DNA replication. The cells were aliquotted onto 24-well plates at a density of 2×10^4 cells per well. The next day, after exchanging culture medium to medium containing 1% FBS, the cells were treated with the compound 1 serially diluted at various concentrations and further cultured for 48 hrs. Four hours before finishing the culture of 48 hrs, ^3H-thymidine was added to the medium in an amount of 3 μCi per well. The cells were washed with phosphate buffer, and treated with 5% trichloroacetic acid (TCA) pre-cooled on ice. Each of the separated TCA-insoluble fractions was dissolved in 0.1 M NaOH. With a portion of each fraction, ^3H-thymidine uptake by the cells was measured using a liquid scintillation counter.

The subject of assay [1] is female white mice with osteoporosis induced by ovariectomy. The experiment in a line: Preventive effect 1 on osteoporosis, tibia histology, oral administration. Type of assay: in vivo. The settings on record: oral for four weeks immediately after ovariectomy. As for the experimental part: (§1) In order to evaluate effects of the compound of the present invention on treatment and prevention of osteoporosis, female white mice with osteoporosis induced by ovariectomy were used as a disease model. After ovariectomy, mice were administered with the compound of the present invention. Tibias were dissected from the mice, and observed histologically.
After anesthetizing female white mice with 100 mg/kg of Ketamine (Ketara) and 0.15 ml/kg of 2% Xylazine (Rompun), the lumbar dorsum is shaved bilaterally and the exposed skin was prepared for aseptic surgery by a 10% povidone-iodine scrub followed by a 70% alcohol wipe.
A 1-cm incision was made in the central region of the abdomen, and the ovary was identified along with the uterus with caution not to damage the main organs such as the liver and diaphragm. After ligating the uterus with a thread for suturing, the exposed ovary was severed toward both sides and removed. Thereafter, each organ was relocated to its original position, and the incision was closed with a thread for suturing in an interrupted pattern. […]
The daily dosage of the Compound 1 per female white mouse was determined based on 250 g body weight. […] With caution not to exchange the water bottles between the groups, everyday, the number of mice was recorded, and the mixture was prepared based on the number of mice. […]

Assay [2] concerns ovariectomized white mice with developed osteoporosis. The experiment in a line: Therapeutic effect on osteoporosis, tibia histology. Particulars: four weeks after ovariectomy, then oral 220 μl in 30 ml water for four weeks. In kind it is in vivo. As to the method:
as §1
In order to evaluate therapeutic effect of the Compound 1 on osteoporosis, after ovariectomy, the mice were fed with solid feedstuff for four weeks. After checking progress of osteoporosis in the mice, a test group was administered with the Compound 1 for four weeks, according to the same method as described above, while a control group was fed with only solid feedstuff. Eight weeks after ovariectomy, tibia tissue specimens were prepared according to a method known the art.
The tibia tissue specimens prepared in the Experimental Example 3-2 were fixed in a Bouin's solution for about 24 hrs. Then, the tibia tissue specimens were decalcificated with 5% nitric acid for about 60 hrs in order to remove inorganic substances including calcium from the tibias, thus softening the tibias to the degree suitable for fracture. […]

“Also recorded” adds a separate entry of the source.

Turning to `O=Cc1ccc(CO)o1` [Compound 1, 5-hydroxymethylfuran-2-carboxyaldehyde], the “Proliferation rate of MG-63 cells, %” value in the assay on MG-63 osteoblasts (10^−4 M Compound 1, 48 hrs) worked out at 105.50 ± 5.90%; in the assay on MG-63 osteoblasts (10^−5 M Compound 1, 48 hrs) it was 102.63 ± 8.53%; in the assay with MG-63 osteoblasts (10^−6 M Compound 1, 48 hrs) it was 105.56 ± 5.49%; with MG-63 osteoblasts (10^−7 M Compound 1, 48 hrs), 103.91 ± 5.81%; in the assay on MG-63 osteoblasts (10^−8 M Compound 1, 48 hrs), 101.38 ± 4.65%. The “proliferation rate of osteoblasts compared to a control not treated” value is listed as “over 105%” with MG-63 osteoblasts and no less than 105% with MG-63 osteoblasts (listed as Example 1). Also, the “cortical and trabecular bone compared to the control group, 40× magnification” value in assay [1] was “marked increase in the cortical and trabecualr bone”. In assay [1] (10 mg/day, 12.5× and 40× magnification), the “trabecular bone loss in tibia, light microscopy” value was “such trabecular bone loss was not observed; also recorded: no trabecular bone loss”. The “trabecular bone density, histology” value in assay [2] was “just a slight decrease in trabecular bone density; also recorded: no trabecular bone loss”.
